Consider 4 compounds from ChEMBL document CHEMBL1201862, “PubChem BioAssay data set” (2004).

Test [1] addresses T1, Kappa-type opioid receptor (Homo sapiens, UniProt P41145). The test can be described thus: SAR analysis of Antagonists of the Kappa Opioid Receptor (KOR) using an Image-Based Assay - Set 3. [Related pubchem assays (depositor defined):AID1777, AID1785]. The format is functional.
Test [2] addresses Delta-type opioid receptor (Homo sapiens, UniProt P41143). The test can be described thus: SAR Analysis of Antagonists of the DOR Receptor using an Image-Based Assay - Set 3. [Related pubchem assays (depositor defined):AID1777, AID1785]. The class given is functional.
Test [3] has as its target T1, Kappa-type opioid receptor. The test can be described thus: SAR analysis of small molecule antagonists of the kappa opioid receptor via a luminescent beta-arrestin assay - Set 3. [Related pubchem assays (depositor defined):AID1777, AID1778, AID1785, AID1786, AID1966, AID2133, AID2136, AID2285, AID2495]. The format is functional.
The next test deals with Mu-type opioid receptor (Homo sapiens, UniProt P35372). The test can be described thus: SAR Analysis of Antagonists of the MOR Receptor using an Image-Based Assay - Set 3. [Related pubchem assays (depositor defined):AID1777, AID1785, AID1786, AID1966, AID2133, AID2136, AID2284, AID2285, AID2420]. The class given is functional.
Test [4] in a line: Luminescence Cell-Based Dose Retest to Confirm Inhibitors of Cancer Stem Cells. [Related pubchem assays (depositor defined):AID2717, AID2721]. The format is functional. The following applies: Homo sapiens.
A short description of test [5]: A549 cell cytotoxicity, dose response, cytotoxicity control, plate reader, cherry-pick, antagonist series (AID 743412). The format is functional, cell-based.
Test [6] in a line: HEK293 cell cytotoxicity, dose response, cytotoxicity control, plate reader, cherry-picked samples (AID 743446). The format is functional, cell-based.
The target in a further test is Integrin alpha-4 (Homo sapiens, UniProt P13612). The test is described as follows: VLA-4 integrin allosteric ligands, SAR follow-up, cell-based, LIBS antibody binding, flow cytometry (AID 488791). The class given is functional.
In test [7] the target is T2, Ubiquitin-conjugating enzyme E2 N (Homo sapiens, UniProt P61088).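 Note: Dose-response confirmation in a TR-FRET assay detecting UBC13-driven polyubiquitin chain formation, inhibition measured.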
T2 sequence (P61088 whole entry): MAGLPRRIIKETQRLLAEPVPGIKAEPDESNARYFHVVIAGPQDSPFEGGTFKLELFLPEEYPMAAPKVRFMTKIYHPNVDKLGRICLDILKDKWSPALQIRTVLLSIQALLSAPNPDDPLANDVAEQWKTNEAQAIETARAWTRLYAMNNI
The class given is functional.

Test [8] is described as follows: LGR2 antagonists, dose response, cell-based, HEK293, CRE-luciferase reporter, cherry pick, set 2 (AID 743343).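 Note: transfected cells were stimulated with diluted bursicon conditioned medium after compound addition.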 The format is functional.
Test [9] in a line: MC4R antagonists, dose response, counter-screen for LGR2 antagonist project, cell-based, plate reader, cherry pick (AID 743444).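 Note: transfected HEK 293 cells stimulated with alpha-MSH peptide; potency of inhibitors of the alpha-MSH evoked signal.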 The format is functional.
A further test concerns the target Melanocortin receptor 4 (Homo sapiens, UniProt P32245). The format is functional, cell-based.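 Note: Cell-based assay with luminescence read-out, confirmatory dose-response testing for agonist activity of biased ligands at MC4R; human U2OS cells with tagged receptor and beta-arrestin; potency of agonists that increase receptor coupling to beta-arrestin.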
Test [10] can be described thus: HepG2 cell cytotoxicity, dose response, cytotoxicity control, plate reader, cherry-pick, antagonist series (AID 743416). The format is functional, cell-based.
In test [11] the target is T3, E3 ubiquitin-protein ligase XIAP (Homo sapiens, UniProt P98170). The test can be described thus: Counter Screen using XIAP-Bir3 for Chemical Antagonists of Bir1/2 domains of IAP-family anti-apoptotic proteins. [Related pubchem assays (depositor defined):AID1018, AID1449, AID1514, AID1638, AID1749, AID1750, AID488957, AID488963].
In test [12] the target is T3, E3 ubiquitin-protein ligase XIAP. The test is described as follows: XIAP antagonists, biochemical, IAP family, fluorescence polarization (AID 1018). The format is functional.
The target of test [13] is T4, Voltage-gated N-type calcium channel alpha-1B subunit/Amyloid beta A4 precursor protein-binding family A member 1 (Homo sapiens, UniProt Q00975+Q02410). The class given is protein assay.
Test [14] deals with Eukaryotic translation initiation factor 4H (Homo sapiens, UniProt Q15056). The test is described as follows: human eIF4H binding inhibitors, primary screen, translation initiation inhibitor project, biochemical, uHTS, fluorescence polarization (AID 2012).
Test [15] addresses Polyadenylate-binding protein 1 (Homo sapiens, UniProt P11940). The test can be described thus: PABP poly(A) RNA binding inhibitors, primary screen, biochemical, fluorescence polarization, uHTS (AID 2014).
The target in test [16] is T4, Voltage-gated N-type calcium channel alpha-1B subunit/Amyloid beta A4 precursor protein-binding family A member 1. The format is protein assay. This is another data set of the same source.

The structures appear in SMILES notation. Activity calls are given as the source filed them.

T4 sequence (Q00975 whole entry): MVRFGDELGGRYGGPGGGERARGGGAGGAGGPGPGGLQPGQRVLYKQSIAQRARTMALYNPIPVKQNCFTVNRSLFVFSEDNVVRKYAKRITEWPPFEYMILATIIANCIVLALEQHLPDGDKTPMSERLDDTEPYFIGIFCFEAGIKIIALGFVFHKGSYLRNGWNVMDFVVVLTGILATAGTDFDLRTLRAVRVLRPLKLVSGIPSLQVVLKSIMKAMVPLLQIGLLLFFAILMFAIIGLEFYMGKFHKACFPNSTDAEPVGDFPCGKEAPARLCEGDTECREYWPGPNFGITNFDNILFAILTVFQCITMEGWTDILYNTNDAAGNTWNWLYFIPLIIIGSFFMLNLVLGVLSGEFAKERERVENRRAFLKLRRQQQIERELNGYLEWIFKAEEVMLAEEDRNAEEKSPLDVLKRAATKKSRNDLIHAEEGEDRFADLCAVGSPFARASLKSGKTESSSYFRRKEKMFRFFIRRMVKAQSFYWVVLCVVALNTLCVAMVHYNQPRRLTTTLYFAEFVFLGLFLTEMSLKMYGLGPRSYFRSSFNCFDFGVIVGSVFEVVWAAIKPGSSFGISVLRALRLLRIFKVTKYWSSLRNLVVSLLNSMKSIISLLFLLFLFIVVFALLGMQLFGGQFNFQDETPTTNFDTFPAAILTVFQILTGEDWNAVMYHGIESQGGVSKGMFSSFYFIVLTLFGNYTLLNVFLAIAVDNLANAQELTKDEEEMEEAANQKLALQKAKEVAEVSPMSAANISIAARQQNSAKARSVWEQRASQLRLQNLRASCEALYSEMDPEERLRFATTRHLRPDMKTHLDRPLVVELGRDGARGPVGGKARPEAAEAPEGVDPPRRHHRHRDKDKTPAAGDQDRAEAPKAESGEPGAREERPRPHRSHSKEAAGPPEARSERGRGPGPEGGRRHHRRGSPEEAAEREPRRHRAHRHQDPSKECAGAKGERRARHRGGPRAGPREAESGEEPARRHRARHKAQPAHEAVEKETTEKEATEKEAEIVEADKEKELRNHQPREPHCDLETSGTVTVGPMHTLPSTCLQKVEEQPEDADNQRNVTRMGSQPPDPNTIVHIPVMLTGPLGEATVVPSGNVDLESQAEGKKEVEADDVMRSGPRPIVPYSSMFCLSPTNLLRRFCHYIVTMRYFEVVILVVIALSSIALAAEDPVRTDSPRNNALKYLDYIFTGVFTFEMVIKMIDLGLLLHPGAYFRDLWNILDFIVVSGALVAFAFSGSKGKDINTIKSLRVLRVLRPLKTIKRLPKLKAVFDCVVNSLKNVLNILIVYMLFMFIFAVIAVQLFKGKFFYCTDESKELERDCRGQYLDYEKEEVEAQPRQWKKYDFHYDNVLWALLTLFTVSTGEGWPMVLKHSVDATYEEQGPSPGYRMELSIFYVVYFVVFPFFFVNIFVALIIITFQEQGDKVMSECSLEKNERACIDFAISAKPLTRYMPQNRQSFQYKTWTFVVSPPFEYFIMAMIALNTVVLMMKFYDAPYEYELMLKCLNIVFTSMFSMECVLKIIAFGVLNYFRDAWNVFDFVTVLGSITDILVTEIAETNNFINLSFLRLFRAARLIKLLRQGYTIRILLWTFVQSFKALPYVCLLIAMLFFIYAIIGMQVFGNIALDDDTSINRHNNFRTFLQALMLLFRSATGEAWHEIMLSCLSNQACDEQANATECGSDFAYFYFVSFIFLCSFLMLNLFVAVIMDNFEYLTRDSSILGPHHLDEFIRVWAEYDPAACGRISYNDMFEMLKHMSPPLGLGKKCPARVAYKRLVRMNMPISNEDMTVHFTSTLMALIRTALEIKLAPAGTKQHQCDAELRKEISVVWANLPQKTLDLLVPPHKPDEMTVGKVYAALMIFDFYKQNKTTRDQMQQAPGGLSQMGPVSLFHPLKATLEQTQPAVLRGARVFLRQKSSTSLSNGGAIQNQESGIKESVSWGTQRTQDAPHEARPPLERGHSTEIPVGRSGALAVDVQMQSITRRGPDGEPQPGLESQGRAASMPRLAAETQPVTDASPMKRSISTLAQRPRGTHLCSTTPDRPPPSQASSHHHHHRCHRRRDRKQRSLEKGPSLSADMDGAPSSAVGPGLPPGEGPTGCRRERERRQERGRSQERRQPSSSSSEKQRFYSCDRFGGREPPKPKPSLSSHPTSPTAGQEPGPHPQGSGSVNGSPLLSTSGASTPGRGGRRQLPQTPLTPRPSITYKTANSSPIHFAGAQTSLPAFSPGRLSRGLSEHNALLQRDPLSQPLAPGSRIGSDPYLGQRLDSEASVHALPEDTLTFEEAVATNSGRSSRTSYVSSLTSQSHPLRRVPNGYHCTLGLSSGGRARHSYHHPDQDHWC
T4 sequence (Q02410 whole entry): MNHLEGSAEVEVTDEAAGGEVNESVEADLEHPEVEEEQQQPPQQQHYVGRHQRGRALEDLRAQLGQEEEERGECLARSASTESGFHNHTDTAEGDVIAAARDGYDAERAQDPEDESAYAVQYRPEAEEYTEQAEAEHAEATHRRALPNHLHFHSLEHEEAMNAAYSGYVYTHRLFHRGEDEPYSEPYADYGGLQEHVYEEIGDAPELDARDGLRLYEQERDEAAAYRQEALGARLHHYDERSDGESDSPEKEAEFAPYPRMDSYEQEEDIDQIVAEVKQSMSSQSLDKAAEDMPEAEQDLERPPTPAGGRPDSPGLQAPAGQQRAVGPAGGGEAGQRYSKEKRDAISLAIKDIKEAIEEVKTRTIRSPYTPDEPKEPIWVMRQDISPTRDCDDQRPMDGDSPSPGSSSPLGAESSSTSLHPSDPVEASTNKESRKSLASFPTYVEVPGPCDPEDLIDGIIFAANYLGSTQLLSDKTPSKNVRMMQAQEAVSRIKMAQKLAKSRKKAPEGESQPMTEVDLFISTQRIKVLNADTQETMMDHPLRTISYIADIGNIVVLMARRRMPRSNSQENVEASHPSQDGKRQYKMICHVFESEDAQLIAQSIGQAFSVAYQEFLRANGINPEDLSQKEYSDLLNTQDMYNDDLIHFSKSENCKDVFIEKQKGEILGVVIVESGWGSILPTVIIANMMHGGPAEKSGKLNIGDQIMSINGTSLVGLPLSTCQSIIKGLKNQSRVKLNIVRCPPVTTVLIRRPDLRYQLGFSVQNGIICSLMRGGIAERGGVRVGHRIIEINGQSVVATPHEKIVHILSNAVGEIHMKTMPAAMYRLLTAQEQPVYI
T3 sequence (P98170 whole entry): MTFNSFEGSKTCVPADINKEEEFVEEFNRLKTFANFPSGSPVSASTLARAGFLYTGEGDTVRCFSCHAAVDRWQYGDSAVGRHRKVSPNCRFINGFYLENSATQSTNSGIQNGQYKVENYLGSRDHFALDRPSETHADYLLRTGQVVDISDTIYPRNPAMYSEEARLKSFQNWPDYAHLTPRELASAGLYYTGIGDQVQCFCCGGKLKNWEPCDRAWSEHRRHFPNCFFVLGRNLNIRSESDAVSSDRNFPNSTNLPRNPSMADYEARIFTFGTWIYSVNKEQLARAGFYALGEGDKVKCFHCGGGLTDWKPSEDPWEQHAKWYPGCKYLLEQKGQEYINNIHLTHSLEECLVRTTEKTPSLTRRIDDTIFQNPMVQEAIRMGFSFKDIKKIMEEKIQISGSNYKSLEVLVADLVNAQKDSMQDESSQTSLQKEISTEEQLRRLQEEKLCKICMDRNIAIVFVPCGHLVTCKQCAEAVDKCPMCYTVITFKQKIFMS
T1 sequence (P41145 whole entry): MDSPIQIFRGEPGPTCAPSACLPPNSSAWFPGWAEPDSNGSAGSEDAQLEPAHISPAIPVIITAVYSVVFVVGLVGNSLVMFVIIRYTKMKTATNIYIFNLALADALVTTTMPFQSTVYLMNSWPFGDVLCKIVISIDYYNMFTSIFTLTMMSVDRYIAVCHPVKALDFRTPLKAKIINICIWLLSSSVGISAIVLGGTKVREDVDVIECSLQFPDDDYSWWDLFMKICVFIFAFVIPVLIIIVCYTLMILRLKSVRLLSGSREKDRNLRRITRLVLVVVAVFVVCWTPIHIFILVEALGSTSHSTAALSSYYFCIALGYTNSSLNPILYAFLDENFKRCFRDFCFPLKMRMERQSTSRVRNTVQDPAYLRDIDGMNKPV
Sequence of Melanocortin receptor 4 (P32245 whole entry): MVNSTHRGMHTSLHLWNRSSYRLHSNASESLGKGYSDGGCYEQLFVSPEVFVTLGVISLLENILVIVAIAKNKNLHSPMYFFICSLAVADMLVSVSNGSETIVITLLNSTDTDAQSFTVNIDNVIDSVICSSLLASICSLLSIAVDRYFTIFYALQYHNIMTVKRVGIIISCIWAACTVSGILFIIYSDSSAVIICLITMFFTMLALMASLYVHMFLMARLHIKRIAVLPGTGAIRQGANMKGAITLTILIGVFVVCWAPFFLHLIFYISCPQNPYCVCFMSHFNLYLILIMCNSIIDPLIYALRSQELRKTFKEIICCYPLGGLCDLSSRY
Sequence of Mu-type opioid receptor (P35372 whole entry): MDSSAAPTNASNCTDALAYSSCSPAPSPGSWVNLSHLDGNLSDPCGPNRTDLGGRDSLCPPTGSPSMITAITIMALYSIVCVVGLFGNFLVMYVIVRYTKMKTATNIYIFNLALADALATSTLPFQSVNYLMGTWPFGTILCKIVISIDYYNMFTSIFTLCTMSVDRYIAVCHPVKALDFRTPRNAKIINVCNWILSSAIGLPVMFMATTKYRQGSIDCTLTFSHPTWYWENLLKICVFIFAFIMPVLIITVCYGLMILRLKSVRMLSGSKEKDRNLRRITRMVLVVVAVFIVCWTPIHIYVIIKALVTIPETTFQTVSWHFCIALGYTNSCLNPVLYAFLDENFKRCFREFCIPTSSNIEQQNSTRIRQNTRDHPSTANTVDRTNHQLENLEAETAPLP

Take `COc1ccc(S(=O)(=O)NCc2ccc(C(=O)NCCN(Cc3ccccc3)C(C)C)cc2)cc1`: the half-maximal inhibitory concentration (IC50) in [1] is 0.806 µM (active); in test [2], > 32 µM (inactive); in [3] it was 2.63 µM (active); on Mu-type opioid receptor, 9.6 µM (active).
For the compound `COc1cccc(-c2sc3ccccc3c2-c2ccc(OCCN(C)C)cc2)c1`, the AC50 in test [4] is 3.29 µM (active); in [5], 7.82 µM (active); in test [6] it was 15.2 µM (active); in test [8], 13 µM (active); in [9], 11.7 µM (active); in test [10] it was 8.01 µM (active). Further, the results for the 50% effective concentration (EC50) at Integrin alpha-4 and at Melanocortin receptor 4 were 29.1 µM (active) and > 3.3 µM (active), respectively. In addition, the IC50 in test [7] was > 20 µM (inactive).
As for `O=C1C2C3c4ccccc4C(c4ccccc43)C2C(=O)N1c1ccncc1` (centres undefined), the IC50 in [11] is > 100 µM (inactive); in test [12] it was > 100 µM (not active).
Take `CC(/C=C/c1ccco1)=N/NC(=O)Cc1cccs1`: the IC50 in test [13] was 18.9 µM (active); in test [14] it was 23.6 µM (active); in [15], > 100 µM (inactive); in [16], 24.6 µM (active).
